Measurements from patent publication US20250100996A1, “HETEROCYCLOALKYL AND HETEROARYL COMPOUNDS AND PHARMACEUTICAL COMPOSITIONS THAT MODULATE IKZF2” (Plexium, Inc., priority 2021, published 2025).

target: T1, GSPT1 (Homo sapiens, UniProt P15170); assay: GSPT1 reporter degradation assay (HEK293 hGSPT1 HiBiT-tagged cells); type: cell-based; conditions: 24 hour incubation
T1 construct: HiBiT-tagged cells were generated using CRISPR-Cas12a technology; endogenous in cells; host or cells: HEK293 (endogenous GSPT1 locus edited with HiBiT knock-in)
Description: HEK293_hGSPTl_HiBiT-tagged cells were generated using CRISPR-Cas12a technology. Briefly, ˜400,000 HEK293 cells were transiently co-transfected with precomplexed ribonuclear proteins (RNPs) consisting of 80 pmol of crRNA (IDT), 62 pmol of Cas12a protein (IDT), 3 μg of ssODN donor (IDT; Alt® modifications), 78 pmol of electroporation enhancer (IDT), and 200 ng of pMaxGFP (Lonza). The transfection was performed via nucleofection (Lonza, 4D-Nucleofector X-unit) using solution P3 and program CM-130 in a ([…]) cuvette. Five days post-nucleofection, cells were single-cell-sorted for GFP+(transfected) cells by FACs in 96-well plates and clonally selected. Clones were screened and verified for the desired modification via targeted deep sequencing using gene-specific primers with partial Illumina adapter overhangs as previously described. In brief, clonal cell pellets were harvested, lysed, and used to generate gene-specific amplicons with partial Illumina adapters in PCR #1. Amplicons were indexed in PCR #2 and pooled with other targeted amplicons for other loci to create sequence diversity. Additionally, 10% PhiX sequencing control V3 (Illumina) was added to the pooled amplicon library prior to running the sample on a Miseq Sequencer System (Illumina) to generate paired 2×250 bp reads. Samples were demultiplexed using the index sequences, fastq files were generated, and NGS analysis was performed using CRIS.py. Final clones were authenticated using the PowerPlex fusion system (Promega) and tested negative for mycoplasma by the MycoAlertTMPlus mycoplasma detection kit (Lonza).
Editing construct sequences and screening primers are outlined below (sequence from 5′ to 3′). hGSPT1Cas12acrRNA, CAGE635.GSPT1.g1: […]; CAGE635.g1.anti.ssODN: ttcctcacagtattgtgcagggtcatcaagaaaatgctta[…] CAGCCGCTCACgtcCttctctggaaccagtttcagaacttttccaattgcaatggtcttacctagaaatgaaattttaa (HiBiT tag and silent blocking modifications to prevent Cas12a recutting after integration are in upper case); CAGE635.hGSPT1.DS.F: […]; CAGE635.hGSPT1.DS.R: GTGAA GTAGGCTTCTGCAGTC.
The GSPT1 degradation assay was carried out by harvesting the HEK 293T reporter cell lines and resuspending the cells in media formulated for reduced background fluorescence (FluoroBrite; Thermo Fisher). The respective cell lines were seeded at a density of 8,000 cells/well into white-opaque 384-well optical grade assay tissue culture plates (Greiner 781080-20). The cells were incubated overnight at 37° C. to allow for attachment to the assay plate. Dilutions of the compounds were prepared in DMSO from 10 mM compound stocks. Test compounds were added in a 10-point dilution series (typically 10 μM to 100 pM) using a TECAN D300e Digital Dispenser with an upper limit of 0.5% final DMSO. Plates were centrifuged at 320×g for 2 minutes at room temperature, and subsequently incubated at 37° C.
After 24 hour incubation with the compounds, the plates were allowed to cool to room temperature for 10 minutes. 30 μL of HiBiT lytic buffer+1:50 HiBiT substrate Solution were added to each well. Plates were centrifuged at 320×g for 2 minutes at room temperature and then incubated with shaking at room temperature for 10 minutes covered with foil. Plates were read on a CLARIOstar microplate reader (BMG LabTech), measuring at 450 nm (donor emission) and 610 nm or 630 nm (acceptor emission). The DC50 values were determined by regression to best fit four-parameter logistic curves using GraphPad Prism.

T1 sequence (Q96SW2 whole entry partner): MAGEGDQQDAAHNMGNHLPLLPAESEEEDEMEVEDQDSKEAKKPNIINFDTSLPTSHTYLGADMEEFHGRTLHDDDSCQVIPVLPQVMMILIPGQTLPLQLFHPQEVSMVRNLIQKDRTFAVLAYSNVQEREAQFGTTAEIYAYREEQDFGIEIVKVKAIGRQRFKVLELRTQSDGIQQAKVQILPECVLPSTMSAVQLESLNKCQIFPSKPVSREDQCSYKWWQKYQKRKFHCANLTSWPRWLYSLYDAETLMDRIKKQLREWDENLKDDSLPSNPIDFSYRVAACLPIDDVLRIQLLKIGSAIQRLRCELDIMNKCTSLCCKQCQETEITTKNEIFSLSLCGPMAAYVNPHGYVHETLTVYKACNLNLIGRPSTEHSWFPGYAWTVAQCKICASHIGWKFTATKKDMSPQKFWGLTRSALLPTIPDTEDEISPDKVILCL
T1 sequence (Q16531 whole entry partner): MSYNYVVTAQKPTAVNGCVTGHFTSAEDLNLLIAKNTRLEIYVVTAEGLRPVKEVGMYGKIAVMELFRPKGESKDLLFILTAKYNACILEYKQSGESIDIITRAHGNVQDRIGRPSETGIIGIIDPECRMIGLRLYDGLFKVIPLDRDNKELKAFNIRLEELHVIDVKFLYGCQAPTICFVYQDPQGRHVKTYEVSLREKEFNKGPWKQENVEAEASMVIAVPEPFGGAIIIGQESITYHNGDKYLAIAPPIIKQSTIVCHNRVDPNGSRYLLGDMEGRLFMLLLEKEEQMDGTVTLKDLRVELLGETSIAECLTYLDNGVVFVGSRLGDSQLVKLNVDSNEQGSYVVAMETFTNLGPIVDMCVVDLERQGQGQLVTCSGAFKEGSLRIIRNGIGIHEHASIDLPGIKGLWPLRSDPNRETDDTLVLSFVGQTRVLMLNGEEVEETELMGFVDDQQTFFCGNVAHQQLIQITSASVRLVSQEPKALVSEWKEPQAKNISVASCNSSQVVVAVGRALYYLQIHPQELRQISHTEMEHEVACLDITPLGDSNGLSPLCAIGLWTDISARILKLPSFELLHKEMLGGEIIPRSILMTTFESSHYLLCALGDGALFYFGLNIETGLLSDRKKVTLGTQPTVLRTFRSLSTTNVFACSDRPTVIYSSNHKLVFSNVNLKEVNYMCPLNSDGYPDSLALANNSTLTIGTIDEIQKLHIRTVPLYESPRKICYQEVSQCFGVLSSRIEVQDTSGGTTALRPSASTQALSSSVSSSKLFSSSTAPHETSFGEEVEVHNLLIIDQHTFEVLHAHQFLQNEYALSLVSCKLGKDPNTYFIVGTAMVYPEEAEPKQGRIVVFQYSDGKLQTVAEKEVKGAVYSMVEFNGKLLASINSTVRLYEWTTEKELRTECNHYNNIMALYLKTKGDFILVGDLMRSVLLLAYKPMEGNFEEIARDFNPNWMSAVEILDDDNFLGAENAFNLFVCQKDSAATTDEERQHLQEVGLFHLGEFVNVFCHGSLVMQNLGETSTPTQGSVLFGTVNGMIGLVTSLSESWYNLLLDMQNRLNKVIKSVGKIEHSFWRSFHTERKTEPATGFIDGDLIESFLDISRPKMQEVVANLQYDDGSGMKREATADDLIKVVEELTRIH
T1 sequence (P15170 whole entry): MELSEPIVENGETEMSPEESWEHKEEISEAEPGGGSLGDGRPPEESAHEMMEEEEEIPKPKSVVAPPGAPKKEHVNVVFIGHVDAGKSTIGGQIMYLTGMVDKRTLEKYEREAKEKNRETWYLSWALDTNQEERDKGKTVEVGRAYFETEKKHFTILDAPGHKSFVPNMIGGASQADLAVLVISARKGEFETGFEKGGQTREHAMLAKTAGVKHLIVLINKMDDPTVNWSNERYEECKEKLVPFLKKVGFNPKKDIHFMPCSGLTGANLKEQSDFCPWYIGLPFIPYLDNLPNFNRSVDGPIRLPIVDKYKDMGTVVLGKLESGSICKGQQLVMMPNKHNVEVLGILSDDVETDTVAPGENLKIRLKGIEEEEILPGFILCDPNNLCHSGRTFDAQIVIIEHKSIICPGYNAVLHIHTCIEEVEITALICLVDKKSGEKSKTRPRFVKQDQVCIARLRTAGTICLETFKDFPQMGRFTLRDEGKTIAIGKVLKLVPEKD

SMILES | DC50 [µM]
CC1(C(=O)N2CCC(C3CN([C@H]4CCCC[C@@H]4Oc4ccc5c(c4)CN(C4CCC(=O)NC4=O)C5=O)C3)CC2)COC1 (stereo partly drawn) [Compound 29-A, 3-(5-(((1S,2S)-2-(3-(1-(3-methyloxetane-3-carbonyl)piperidin-4-yl)azetidin-1-yl)cyclohexyl)oxy)-1-oxoisoindolin-2-yl)piperidine-2,6-dione] | > 30
CC1(C(=O)N2CCC(C3CN([C@H]4CCCC[C@@H]4Oc4ccc5c(c4)CN(C4CCC(=O)NC4=O)C5=O)C3)CC2)CC1 (stereo partly drawn) [Compound 31-A, 3-(5-(((1S,2S)-2-(3-(1-(1-methylcyclopropane-1-carbonyl)piperidin-4-yl)azetidin-1-yl)cyclohexyl)oxy)-1-oxoisoindolin-2-yl)piperidine-2,6-dione] | > 30
O=C1CCC(N2Cc3cc(O[C@H]4CCCC[C@@H]4N4CC(C5CCN(C(=O)C6CC(F)(F)C6)CC5)C4)ccc3C2=O)C(=O)N1 (stereo partly drawn) [Compound 32-A, 3-(5-(((1S,2S)-2-(3-(1-(3,3-difluorocyclobutane-1-carbonyl)piperidin-4-yl)azetidin-1-yl)cyclohexyl)oxy)-1-oxoisoindolin-2-yl)piperidine-2,6-dione] | > 30
O=C1CCC(N2Cc3cc(O[C@H]4CCCC[C@@H]4N4CC(c5ccc6cccnc6c5)C4)ccc3C2=O)C(=O)N1 (stereo partly drawn) [Compound 87-B, 3-(1-oxo-5-(((1S,2S)-2-(3-(quinolin-7-yl)azetidin-1-yl)cyclohexyl)oxy)isoindolin-2-yl)piperidine-2,6-dione] | > 30
O=C1CCC(N2Cc3cc(O[C@H]4CCCC[C@@H]4N4CC(C5CCN(C(=O)C6(F)CC6)CC5)C4)ccc3C2=O)C(=O)N1 (stereo partly drawn) [Compound 42-A, 3-(5-(((1S,2S)-2-(3-(1-(1-fluorocyclopropane-1-carbonyl)piperidin-4-yl)azetidin-1-yl)cyclohexyl)oxy)-1-oxoisoindolin-2-yl)piperidine-2,6-dione] | > 30
O=C1CCC(N2Cc3cc(O[C@H]4CCCC[C@@H]4N4CC(C5CCN(C(=O)CC6CC6)CC5)C4)ccc3C2=O)C(=O)N1 (stereo partly drawn) [Compound 34-A, 3-(5-(((1S,2S)-2-(3-(1-(2-cyclopropylacetyl)piperidin-4-yl)azetidin-1-yl)cyclohexyl)oxy)-1-oxoisoindolin-2-yl)piperidine-2,6-dione] | > 30
CC12CC(C(=O)N3CCC(C4CN([C@H]5CCCC[C@@H]5Oc5ccc6c(c5)CN(C5CCC(=O)NC5=O)C6=O)C4)CC3)(C1)C2 (stereo partly drawn) [Compound 28-A, 3-(5-(((1S,2S)-2-(3-(1-(3-methylbicyclo[1.1.1]pentane-1-carbonyl)piperidin-4-yl)azetidin-1-yl)cyclohexyl)oxy)-1-oxoisoindolin-2-yl)piperidine-2,6-dione] | > 30
O=C1CCC(N2Cc3cc(O[C@H]4CCCC[C@@H]4N4CC(C5CCN(S(=O)(=O)C6CCC6)CC5)C4)ccc3C2=O)C(=O)N1 (stereo partly drawn) [Compound 57-A, 3-(5-(((1S,2S)-2-(3-(1-(cyclobutylsulfonyl)piperidin-4-yl)azetidin-1-yl)cyclohexyl)oxy)-1-oxoisoindolin-2-yl)piperidine-2,6-dione] | > 30
N#CC1(C(=O)N2CCC(C3CN([C@H]4CCCC[C@@H]4Oc4ccc5c(c4)CN(C4CCC(=O)NC4=O)C5=O)C3)CC2)CC1 (stereo partly drawn) [Compound 27-A, 1-(4-(1-((1S,2S)-2-((2-(2,6-dioxopiperidin-3-yl)-1-oxoisoindolin-5-yl)oxy)cyclohexyl)azetidin-3-yl)piperidine-1-carbonyl)cyclopropane-1-carbonitrile] | > 30
O=C1CCC(N2Cc3cc(O[C@H]4CCCC[C@@H]4N4CC(C5CCOCC5F)C4)ccc3C2=O)C(=O)N1 (stereo partly drawn) [Compound 55-A, 3-(5-(((1S,2S)-2-(3-(3-fluorotetrahydro-2H-pyran-4-yl)azetidin-1-yl)cyclohexyl)oxy)-1-oxoisoindolin-2-yl)piperidine-2,6-dione] | > 30
CC1CC1C(=O)N1CCC(C2CN([C@H]3CCCC[C@@H]3Oc3ccc4c(c3)CN(C3CCC(=O)NC3=O)C4=O)C2)CC1 (stereo partly drawn) [Compound 35-A, 3-(5-(((1S,2S)-2-(3-(1-(2-methylcyclopropane-1-carbonyl)piperidin-4-yl)azetidin-1-yl)cyclohexyl)oxy)-1-oxoisoindolin-2-yl)piperidine-2,6-dione] | > 30
N#CC1(C(=O)N2CCC(C3CN([C@H]4CCCC[C@@H]4Oc4ccc5c(c4)CN(C4CCC(=O)NC4=O)C5=O)C3)CC2)CCC1 (stereo partly drawn) [Compound 30-A, 1-(4-(1-((1S,2S)-2-((2-(2,6-dioxopiperidin-3-yl)-1-oxoisoindolin-5-yl)oxy)cyclohexyl)azetidin-3-yl)piperidine-1-carbonyl)cyclobutane-1-carbonitrile] | > 30
CC1(C(=O)N2CCC(C3CN([C@H]4CCCC[C@@H]4Oc4ccc5c(c4)CN(C4CCC(=O)NC4=O)C5=O)C3)CC2)CCCC1 (stereo partly drawn) [Compound 33-A, 3-(5-(((1S,2S)-2-(3-(1-(1-methylcyclopentane-1-carbonyl)piperidin-4-yl)azetidin-1-yl)cyclohexyl)oxy)-1-oxoisoindolin-2-yl)piperidine-2,6-dione] | > 30
O=C1CCC(N2Cc3cc(O[C@H]4CCCC[C@@H]4N4CC(C5CCOC5)C4)ccc3C2=O)C(=O)N1 (stereo partly drawn) [Compound 14-A, 3-(1-oxo-5-(((1S,2S)-2-(3-(tetrahydrofuran-3-yl)azetidin-1-yl)cyclohexyl)oxy)isoindolin-2-yl)piperidine-2,6-dione] | > 30
